The values below come from paper PMC10985088, “Synthesis and biological evaluation of echinomycin analogues as potential colon cancer agent” (Scientific Reports, 2024).

Each structure is given as a SMILES string. Where only a bound is given, the exact number is not on record here.

Data set [1] has as its system SW620 cells. Briefly: WST-8 cytotoxicity assay, SW620. To be noted: read-out: IC50 SW620; human colon cancer cell, 72 h, mean ± SE (n = 3). As for the experimental part:
With a range of chromophore analogues in hand, their toxicity to SW620 cells was investigated by WST assays.
Basically, the evaluation was performed using methods previously reported by our group[20],[23]. Cytotoxic activities of compounds against MIA PaCa-2 (American Type Culture Collection), SW620 (European Collection of Authenticated Cell Cultures) were measured by WST-8 assay according to manufacturer’s protocol. Briefly, cells (1 × 10^4 cells/well) in a 96-well plate were cultured in medium (for MIA PaCa-2, D-MEM (Wako, Japan) containing 10% fetal bovine serum (Funakoshi, Japan), 100 units/mL penicillin G and 100 µg/mL streptomycin (Wako, Japan), for SW620, RPMI-1640 (Wako, Japan) containing 10% fetal bovine serum, 100 units/mL penicillin G and 100 µg/mL streptomycin) were cultured at 37 °C for 24 h under 5% CO2 atmosphere. Then, cells were treated with test compounds (final DMSO concentration was 1%) at 37 °C for 72 h under 5% CO2 atmosphere. Then, cells were treated with a solution of Cell Counting Kit-8® (Dojindo, Japan) for 3 h. After that, cell viabilities were determined based on the measurement of absorption at 450 nm of the wells by using TECAN Infinite® M200 microplate reader. The results were expressed as a percentage of the negative control (cells treated with DMSO only), and that value was fixed at 100%.
In general terms: Tetrazolium dyes change colour on reduction, which living cells bring about.

Data set [2] in a line: Hepatic microsomal stability assay, human. The settings on record: microsomes, 1 μM, 0.2 mg/mL microsomes, 37 °C, 30 min. Format: in vitro ADME. As for the experimental part:
(§1) Before investigating the in vivo efficacy of 3, its metabolic stability was evaluated by treatment with human or mouse liver microsomes at 37 °C for 30 min, and the remaining analogues were analyzed by LC–MS/MS (Table 3). […] This means that approximately 67% of 3 was unaffected by human liver microsomes.
(§2) Basically, the analysis was performed using methods previously reported. Disappearance of the parent compound over time was measured by using the amount of drug at time zero as a reference. After 5 min of preincubation, 1 mM NADPH (final concentration, the same applies to the following, NADPH( +)) or 0.1 M phosphate buffer (pH 7.4, NADPH(−))) was added to a mixture containing 1 μM of the test compound, 0.2 mg/mL of human or mouse liver microsomes (Sekisui XenoTech LLC (Kansas City, KS)), 1 mM EDTA and 0.1 M phosphate buffer (pH 7.4) and incubated at 37 °C for 30 min by rotation at 60 rpm. An aliquot of 50 μL of the incubation mixture was sampled and added to 250 μL of chilled acetonitrile/internal standard (IS). After centrifuging for 15 min at 3150×g (4 °C), the supernatants were analyzed by LC–MS/MS. Hepatic microsomal stability (mL/min/kg, CLint) was calculated according to the previous report, using 48.8 and 45.4 mg MS protein/g liver and 25.7 and 87.5 g liver/kg body weight as scaling factors for human and mouse, respectively.
(§3) Basically, the analysis was performed using methods previously reported. An LC-MS8060 instrument equipped with a Shimadzu Nexera series LC system (Shimadzu, Kyoto, Japan) was used. All compounds were analyzed in multi-reaction monitoring mode under electron spray ionization conditions. The analytical column used was a […] C18 MGIII (3 μm × 2.0 mmID × 35 mm; OSAKA SODA, Osaka, Japan) at 50 °C. The gradient mobile phase consisted of 0.1% formic acid in water (mobile phase A,) and 0.1% formic acid in acetonitrile (mobile phase B) at a total flow rate of 1 mL/min. The initial mobile phase composition was 10% B, which was held constant for 0.2 min, increased in a linear fashion to 90% B over 1 min, then held constant for 0.8 min, and finally brought back to the initial condition of 10% B over 0.01 min and re-equilibrated for 1 min. The transitions (precursor ion > product ion) of echinomycin, 3 and IS (methyl testosterone) are 1101.45 > 1053.5 (positive), 1083.5 > 523.95 (negative), and 303.1 > 109.1 (positive), respectively.

Data set [3] can be described thus: Hepatic microsomal stability assay, mouse. It counts as in vitro ADME. To be noted: microsomes, 1 μM, 0.2 mg/mL microsomes, 37 °C, 30 min. As for the experimental part:
as §1, §2, §3

The nature of data set [4]: Investigation of maximum tolerated dose (body weight of mice). To be noted: 14 days. Format: in vivo, mouse. How it is done:
Toxicity Body weight change is an indicator of systemic toxicity. Accordingly, the body weights of mice intraperitoneally treated with different doses (0.04 and 0.4 µg/mouse) of either 1 or 3 were measured (Fig. S1). […] A blood hematological examination (including nineteen parameters) was also conducted on these mice on Day 14 (Fig. S2). There were no significant changes in almost any of the parameters in the mice treated with either 1 or 3 at doses of 0.04 or 0.4 µg/mouse.

Details of data set [5]: method as in PMID 2737217. The settings on record: doses of 60 and 120 μg/m^2; cited from earlier work.

What is called IC50 is the concentration that gives 50% inhibition.

Consider `CS[C@H]1SC[C@H]2C(=O)N(C)[C@@H](C(C)C)C(=O)OC[C@@H](NC(=O)c3cnc4ccccc4n3)C(=O)N[C@@H](C)C(=O)N(C)[C@@H]1C(=O)N(C)[C@@H](C(C)C)C(=O)OC[C@@H](NC(=O)c1cnc3ccccc3n1)C(=O)N[C@@H](C)C(=O)N2C` [Compound 1, Echinomycin], for which the 50% inhibitory concentration (IC50) in data set [1] was determined as 2.5 ± 0.8 nM. For the same molecule, the CLint scaled in data set [2] (NADPH(+), read-out: Metabolic stability (CLint) Human NADPH(+)) is less than 22 mL/min/kg; in data set [2] (NADPH(−), read-out: Metabolic stability (CLint) Human NADPH(−)) it was less than 22 mL/min/kg; in data set [3] (NADPH(+), read-out: Metabolic stability (CLint) Mouse NADPH(+)) it was less than 69.8 mL/min/kg; in data set [3] (NADPH(−), read-out: Metabolic stability (CLint) Mouse NADPH(−)), less than 69.8 mL/min/kg. Further, in data set [4] (i.p. 0.04 and 0.4 µg/mouse, daily), the body weight result is “did not differ greatly from those of the control”. Moreover, the “dose up to which no significant toxicity is shown” value in data set [4] (i.p. daily, body weight and blood examination) is listed as not below 0.04 µg/mouse. For the same molecule, the “toxicity at lower doses in human clinical trials” value in data set [5] was “no observed toxicity”.
